Source: US8551999B2, “Heterocyclic compound and pharmaceutical composition thereof” (Otsuka Pharmaceutical Co., Ltd., priority 2007, dated 2013)

Structure (SMILES)	melting point
COc1ccc(CN2CCN(C(=O)c3cc4c(C)c(Oc5ccc(N(C)C(=O)c6ccc(C(F)(F)F)cc6)cn5)ccc4n3C)CC2)cc1 [Example 426, N-(6-{2-[4-(4-Methoxybenzyl)piperazine-1-carbonyl]-1,4-dimethyl-1H-indol-5-yloxy}pyridin-3-yl)-N-methyl-4-trifluoromethyl-benzamide]	184 to 186 °C
Br.Cn1c(C(=O)N2CCN(Cc3ccc(OC(F)(F)C(F)F)cc3)CC2)cc2ccc(Oc3ccc(NC(=O)c4ccc(C(F)(F)F)cc4)cn3)cc21 [Example 250, N-[6-(1-Methyl-2-{4-[4-(1,1,2,2-tetrafluoroethoxy)benzyl]-piperazine-1-carbonyl}-1H-indol-6-yloxy)pyridin-3-yl]-4-tri-fluoromethylbenzamide hydrobromide]	279 to 282 °C (dec.)
Br.CCOc1cccc(CN2CCN(C(=O)c3cc4ccc(Oc5ccc(N(C)C(=O)c6ccc(C(F)(F)F)cc6)cn5)cc4n3C)CC2)c1 [Example 418, N-(6-{2-[4-(3-Ethoxybenzyl)piperazine-1-carbonyl]-1-methyl-1H-indol-6-yloxy}pyridin-3-yl)-N-methyl-4-trifluoromethylbenzamide hydrobromide]	234 to 236 °C
Cc1c(Oc2ccc(N(C)C(=O)c3ccc(C(F)(F)F)cc3)cn2)ccc2c1cc(C(=O)N1CCN(Cc3ccc4c(c3)OC(F)(F)O4)CC1)n2C [Example 441, N-(6-{2-[4-(2,2-Difluorobenzo[1,3]dioxol-5-ylmethyl)piperazine-1-carbonyl]-1,4-dimethyl-1H-indol-5-yloxy}pyridin-3-yl)-N-methyl-4-trifluoromethylbenzamide]	97.9 to 99.5 °C
Br.Cn1c(C(=O)N2CCN(Cc3ccccc3)CC2)cc2cc(Oc3ccc(NCc4ccc(Cl)c(Cl)c4)cn3)ccc21 [Example 334, (4-Benzylpiperazin-1-yl)(5-{5-[(3,4-dichlorophenyl)methylamino]-pyridin-2-yloxy}-1-methyl-1H-indol-2-yl)methanone hydrobromide]	209 to 217 °C
Br.Cn1c(C(=O)N2CCN(Cc3ccc4c(c3)OCO4)CC2)cc2ccc(Oc3ccc(NC(=O)c4ccc(Cl)c(Cl)c4)cn3)cc21 [Example 257, N-{6-[2-(4-Benzo[1,3]dioxol-5-ylmethylpiperazine-1-carbonyl)-1-methyl-1H-indol-6-yloxy]pyridin-3-yl}-3,4-dichlorobenzamide hydrobromide]	241.3 to 243.9 °C
Br.CN(C(=O)c1ccc(OC(F)(F)F)cc1)c1ccc(Oc2ccc3cc(C(=O)N4CCN(Cc5ccc(OCC(F)(F)F)cc5)CC4)n(C)c3c2)nc1 [Example 456, N-Methyl-N-[6-(1-methyl-2-{4-[4-(2,2,2-trifluoroethoxy)benzyl]-piperazine-1-carbonyl}-1H-indol-6-yloxy)pyridin-3-yl]-4-tri-fluoromethoxybenzamide hydrobromide]	227.4 to 229.2 °C
COc1ccc(CN2CCN(C(=O)c3cc4cc(Oc5ccc(NC(=O)c6ccc(C(F)(F)F)cc6)cn5)ccc4n3C)CC2)cn1.O=C(O)/C=C\C(=O)O [Example 348, N-(6-{2-[4-(6-Methoxypyridin-3-ylmethyl)piperazine-1-carbonyl]-1-methyl-1H-indol-5-yloxy}pyridin-3-yl)-4-trifluoromethylbenzamide maleate]	135 to 138 °C
Br.CCOc1ccc(CN2CCN(C(=O)c3cc4cc(Oc5ccc(NC(=O)c6ccc(C(F)(F)F)cc6)cn5)ccc4n3C)CC2)cc1 [Example 363, N-(6-{2-[4-(4-Ethoxybenzyl)piperazine-1-carbonyl]-1-methyl-1H-indol-5-yloxy}pyridin-3-yl)-4-trifluoromethylbenzamide hydrobromide]	231 to 234 °C
COc1ccc(CN2CCN(C(=O)c3cc4cc(Oc5cc(C)c(NC(=O)c6ccc(C(F)(F)F)cc6)cn5)ccc4n3C)CC2)cc1.O=C(O)C(=O)O [Example 433, N-(6-{2-[4-(4-Methoxybenzyl)piperazine-1-carbonyl]-1-methyl-1H-indol-5-yloxy}-4-methylpyridin-3-yl)-4-trifluoromethylbenzamide oxalate]	144 to 147 °C
Cc1cc(C(F)(F)F)ccc1C(=O)Nc1ccc(Oc2ccc3cc(C(=O)N4CCN(Cc5ccc(OC(F)F)cc5)CC4)n(C)c3c2)nc1.Cl	204.9 to 205.7 °C
Br.CN(C(=O)c1ccc(OC(F)F)cc1)c1ccc(Oc2ccc3cc(C(=O)N4CCN(Cc5ccc(OC(F)F)cc5)CC4)n(C)c3c2)nc1 [Example 282, 4-Difluoromethoxy-N-(6-{2-[4-(4-difluoromethoxybenzyl)piperazine-1-carbonyl]-1-methyl-1H-indol-6-yloxy}pyridin-3-yl)-N-methyl-benzamide hydrobromide]	198.7 to 200.5 °C
COc1ccc(CN2CCN(C(=O)c3cc4cc(Oc5ccc(N(C)C(=O)c6ccc(Cl)c(Cl)c6)cn5)ccc4n3C)CC2)cc1.O=C(O)/C=C\C(=O)O [Example 347, 3,4-Dichloro-N-(6-{2-[4-(4-methoxybenzyl)piperazine-1-carbonyl]-1-methyl-1H-indol-5-yloxy}pyridin-3-yl)-N-methylbenzamide maleate]	171 to 172 °C
Br.Br.Cn1c(C(=O)N2CCN(Cc3ccncc3)CC2)cc2cc(Oc3ccc(NC(=O)c4ccc(Cl)c(Cl)c4)cn3)ccc21 [Example 555, 3,4-Dichloro-N-{6-[1-methyl-2-(4-pyridin-4-ylmethylpiperazine-1-carbonyl)-1H-indol-5-yloxy]pyridin-3-yl}benzamide dihydrobromide]	214 to 219 °C (dec.)
Br.Cn1c(C(=O)N2CCN(Cc3ccccn3)CC2)cc2c(Oc3ccc(NC(=O)c4ccc(C(F)(F)F)cc4)cn3)cccc21 [Example 246, N-{6-[1-Methyl-2-(4-pyridin-2-ylmethylpiperazine-1-carbonyl)-1H-indol-4-yloxy]pyridin-3-yl}-4-trifluoromethylbenzamide hydrobromide]	186 to 189 °C
COc1ccccc1CN1CCN(C(=O)c2cc3cc(Oc4ccc(N(C)C(=O)c5ccc(C(F)(F)F)cc5)cn4)ccc3n2C)CC1.O=C(O)C(=O)O [Example 355, N-(6-{2-[4-(2-Methoxybenzyl)piperazine-1-carbonyl]-1-methyl-1H-indol-5-yloxy}pyridin-3-yl)-N-methyl-4-trifluoromethylbenzamide oxalate]	140 to 142 °C
Br.CN(C(=O)c1ccc(OC(F)F)cc1)c1ccc(Oc2ccc3cc(C(=O)N4CCN(Cc5ccc(OCC(F)(F)F)cc5)CC4)n(C)c3c2)nc1 [Example 284, 4-Difluoromethoxy-N-methyl-N-[6-(1-methyl-2-{4-[4-(2,2,2-tri-fluoroethoxy)benzyl]piperazine-1-carbonyl}-1H-indol-6-yloxy)-pyridin-3-yl]benzamide hydrobromide]	203.8 to 205.6 °C
CC(C)Oc1ccc(CN2CCN(C(=O)c3cc4ccc(Oc5ncc(N(C)S(C)(=O)=O)cn5)cc4n3C)CC2)cc1 [Example 45, N-(2-{2-[4-(4-Isopropoxybenzyl)piperazine-1-carbonyl]-1-methyl-1H-indol-6-yloxy}pyrimidin-5-yl)-N-methylmethanesulfonamide]	134.3 to 135.6 °C
